Experimental data published in article PMC10420772, “Characteristics of alanine racemase in Lactobacillus sakei ZH‐2 strain” (Food Science & Nutrition, 2023).

Key:
[1] = biological target: T1, rALRase (recombinant alanine racemase of Lactobacillus sakei ZH-2) (Latilactobacillus sakei, UniProt Q38V64, T117A); test: racemase activity with and without PLP, D-amino acid oxidase/LDH-coupled; type: biochemical; details: L-alanine substrate; 10 mM PLP in the standard assay, pH 9.0
T1 construct: gene alr; pCold I in E. coli BL21, His-tag purified, tag removed with Factor Xa

[2] = substrate: C[C@H](N)C(=O)O; test: purified protein; details: L-alanine 0.1-50 mM, L to D direction, standard assay 50 mM CHES-NaOH pH 9.0, 10 mM PLP, 37 °C

Molecule | fold activity with PLP versus without [1] | Km [2]
Cc1ncc(COP(=O)(O)O)c(C=O)c1O [pyridoxal phosphate] | 1.5–2 times | 
rALRase (recombinant alanine racemase of Lactobacillus sakei ZH-2) (Latilactobacillus sakei subsp. sakei 23K; T117A) (protein) MTVGYLRPTRILVDQNAIYENIQNELKHLEGTDTVIFPVLKANAYGHGLIPVAEAAQAAGAAGFCVALLDEALALRRANFTEPILVLGITQPSEIELAAANQISLTVGSLEWLQEAAAIAQQVPYLHPVPIHLSIDSGMGRIGMRDEAELLAAYTFIKAHSDYFDFEGVFTHFATADDPDDTYFKEQSARFNQLMTALPERPRFVHVSNSATSLWHAACNGNIIRMGISLYGLNPSGNAIPDLPYPLKQALGIESELVFVKQVAAGTKIGYGATYEASEGEWIGTIPMGYADGWLRRMQGSTVLVDGQRCEIVGRICMDQMMIRLPKRYPVGTKVVFVGKSGDDEITLQEVADYADTIHYEIICDLSDRIPRVYTGLNEH |  | 1320 µM
